Experimental data as given in patent US20260043007A1, “METHOD FOR PRODUCING CARDIAC MUSCLES” (Kyoto University, priority 2022, published 2026).

Assays:
[1] = test system: HEY2 (target gene of Notch signal); assay: Expression analysis of the target gene of Notch signal (HEY2) in sorted cell subpopulations; type: cell-based, human; conditions: both CD151-high and CD151-low, compared to DMSO-added control
Procedure: (§1) On the 6th day of differentiation, the medium was replaced with cardiomyocyte induction medium 3, and from the 8th day of differentiation onwards, 3 μM of γ-secretase inhibitor (LY411575) that inhibits Notch signaling was added when changing the medium, and the cells were cultured at 37° C. under 5% oxygen conditions until the 10th day. Cells added with 0.1% DMSO were also prepared as a control. Thereafter, the medium was changed on the 10th, 13th, 15th, and 17th days, and after the medium change on the 10th day, the cells were cultured under normal oxygen conditions until the 20th day. As the cardiomyocyte induction medium 3, StemPro-34 SFM supplemented with 1% L-glutamine, 150 μg/ml transferrin, 50 μg/ml ascorbic acid, 4×10^-4 M monothioglycerol, and 5 ng/ml VEGF was used.
(§2) The expression of marker genes indicating Notch signal activity and atrial myocyte markers was analyzed for the cardiomyocyte subpopulations “DMSO/CD151-high”, “DMSO/CD151-low”, “Notch inhibitor/CD151-high”, and “Notch inhibitor/CD151-low” obtained in Experimental Example 2.
(§3) According to the conventional method, total RNA was extracted from each cell subpopulation and expression analysis was performed for the target gene of Notch signal (HEY2) and the marker genes of atrial myocytes (NR2F1, NR2F2, NPPA, KCNA5, KCNJ3, TBX5 and MYL7). […]

[2] = test system: CD151 expression in EmGFP-positive cells induced from human iPS cell line (1390D4 strain); assay: Sorting of atrial myocyte population based on CD151 expression level (flow cytometry); type: cell-based; conditions: 3 μM LY411575 from day 8 to day 20 of differentiation, mean ± standard error
Procedure: A cell population containing cardiomyocytes was induced from iPSC under atrial myocyte differentiation conditions or ventricular myocyte differentiation conditions. As iPSC, a double knock-in human iPS cell line (1390D4 strain) was used, in which EmGFP was inserted into the TNNI1 locus and mCherry was inserted into the TNNI3 locus as reporter proteins.
To differentiate iPSC into cardiomyocytes, iPSC was seeded into low-adhesion 6-well plates (2×10^6 cells/1.5 ml/well) and statically cultured at 37° C. and 5% oxygen to form embryoid bodies (day 0). The culture medium used was StemPro-34 SFM (Thermo Fisher Scientific) supplemented with 1% L-glutamine, 150 μg/ml transferrin, […] ascorbic acid, 4×10^-4 M monothioglycerol, 10 μM Rock inhibitor (Y-27632), 2 ng/ml BMP4, and 0.5% Matrigel. […]
On the 20th day of culture, the cell population containing atrial myocytes was dispersed into single cells and the cell number was counted. […] CD151 expression in EmGFP-positive cells was analyzed using a flow cytometer (BD FACS Aria Fusion cell sorter). The fluorescence intensity of 95% or more of the negative control cells was set as the threshold, and the cell subpopulations showing fluorescence intensity lower than the threshold were defined as “CD151-low” and the cell subpopulations showing fluorescence intensity higher than the threshold were defined as “CD151-high”. […]

[3] = test system: cardiomyocyte subpopulations differentiated from human iPS cells; assay: Proportion of atrial myocytes by whole-cell patch clamp electrophysiology; type: cell-based; conditions: for atrial myocytes (%): APD 30/90 less than 0.3 and dv/dtmax 10 or more
Procedure: as §1
The proportion of atrial myocytes was determined by an electrophysiological method for the “Notch inhibitor/CD151-high” and “Notch inhibitor/CD151-low” cardiomyocyte subpopulations obtained in Experimental Example 2.
Each cell subpopulation was cultured on a fibronectin-coated cover glass. Culture was performed at 37° C. under normal oxygen conditions using StemPro-34 SFM supplemented with 1% L-glutamine, 150 μg/ml transferrin, 50 ug/ml ascorbic acid, 4×10^-4 M monothioglycerol, and 5 ng/ml VEGF, with medium change every 3 days. Cells on the 15th and 16th days of culture were subjected to electrophysiological analysis.
Analysis was performed using the whole-cell patch clamp method using Axopatch 200B amplifier (Molecular Devices) and pCLAMP software. Electrodes were made with glass capillaries (WPI) using a micropipette puller and filled with intracellular solution (130 mM KOH, 130 mM L-aspartic acid, 20 mM KC1, 5 mM NaCl, 10 mM HEPES, 5 mM Mg-ATP, 10 mM EGTA, 1 mM MgC12, PH 7.2). Experiments were performed at 35-37° C. while perfusing Gey's balanced salt solution (Sigma) as the extracellular solution. The spontaneous action potential of each cell was recorded for 1 min in current clamp mode. APD30, APD90, and maximum velocity of waveform rise (dv/dtmax) were calculated from the average waveform of 8-10 consecutive waveforms. Cells showing a waveform with APD 30/90 of less than 0.3 and dv/dtmax of 10 or more were defined as atrial myocytes. Cells showing a waveform with APD 30/90 of 0.3 or more and dv/dtmax of 10 or more or dv/dtmax of less than 10 were classified as other cells. […]

[4] = test system: marker genes of atrial myocytes (NR2F1, NR2F2, NPPA, KCNA5, KCNJ3, TBX5 and MYL7); assay: Expression analysis of atrial myocyte marker genes in sorted cell subpopulations; type: cell-based, human; conditions: both CD151-high and CD151-low, compared to DMSO-added control population
Procedure: as §1, §2, §3

[5] = CD151-high subpopulation, n = 19
[6] = CD151-low subpopulation, n = 20

C[C@H](NC(=O)[C@@H](O)c1cc(F)cc(F)c1)C(=O)N[C@@H]1C(=O)N(C)c2ccccc2-c2ccccc21 [Notch inhibitor]
expression of the HEY2 gene [1]: reduced
Cell population (%) CD151-high [2]: 39.9 ± 3.3%
Cell population (%) CD151-low [2]: 60.1 ± 3.3%
other cells (%) [3, 5]: 68%
atrial myocytes (%) [3, 5]: 32%
other cells (%) [3, 6]: 20%
atrial myocytes (%) [3, 6]: 80%
expression of atrial myocyte markers [4]: increased
